Columns and labels:
AHR [1] = molecular target: T1, AHR (Homo sapiens, UniProt P35869); test: DRE-Luciferase Reporter Assay, HepG2 (agonist); type: cell-based; settings: HepG2, Table 2; read-out: DRE-Luc HepG2 - Agonist: Average EC50
T1 construct: endogenous in cells; host or cells: HepG2 (human), transfected with a DRE-luciferase reporter only
T1 sequence (P35869 11-848): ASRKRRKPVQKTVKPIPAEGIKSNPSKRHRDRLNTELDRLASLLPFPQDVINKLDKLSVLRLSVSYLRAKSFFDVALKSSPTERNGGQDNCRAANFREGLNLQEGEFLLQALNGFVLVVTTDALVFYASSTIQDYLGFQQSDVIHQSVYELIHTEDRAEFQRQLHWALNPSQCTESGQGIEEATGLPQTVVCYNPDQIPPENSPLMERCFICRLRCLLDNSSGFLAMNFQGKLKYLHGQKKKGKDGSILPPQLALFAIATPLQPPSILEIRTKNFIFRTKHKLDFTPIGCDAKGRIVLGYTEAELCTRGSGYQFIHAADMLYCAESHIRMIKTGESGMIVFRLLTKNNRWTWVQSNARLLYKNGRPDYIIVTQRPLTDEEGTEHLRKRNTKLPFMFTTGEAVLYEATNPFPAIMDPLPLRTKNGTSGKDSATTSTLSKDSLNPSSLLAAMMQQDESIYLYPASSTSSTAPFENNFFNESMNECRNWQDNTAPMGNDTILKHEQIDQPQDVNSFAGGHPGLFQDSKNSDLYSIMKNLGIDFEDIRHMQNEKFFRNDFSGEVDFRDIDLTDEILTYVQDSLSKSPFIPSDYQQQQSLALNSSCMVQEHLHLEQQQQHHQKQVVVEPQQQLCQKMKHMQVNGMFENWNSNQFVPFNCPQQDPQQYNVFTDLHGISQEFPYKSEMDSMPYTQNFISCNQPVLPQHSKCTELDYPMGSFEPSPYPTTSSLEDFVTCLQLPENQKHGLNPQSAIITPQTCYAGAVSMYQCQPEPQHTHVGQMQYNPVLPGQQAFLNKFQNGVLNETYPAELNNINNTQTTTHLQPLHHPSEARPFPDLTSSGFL
Procedure, shortened: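 Cells carrying a stably or transiently transfected DRE-luciferase reporter, plated overnight at 37 C, then given agonist for 6, 16 or 24 h before lysis and luciferase read-out. Signal scaled between no ligand (minimum) and activating ligand alone, e.g. TCDD (maximum); EC50 = concentration giving half-maximal luciferase activity.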

AHR [2] = molecular target: T2, AHR (Mus musculus, UniProt P30561); test: P450 CYP1A1 Luciferase Assay, Hepa1.6 (agonist); type: cell-based, murine; settings: Hepa1.6, Table 2
T2 sequence (P30561 1-848 F348L/P471L): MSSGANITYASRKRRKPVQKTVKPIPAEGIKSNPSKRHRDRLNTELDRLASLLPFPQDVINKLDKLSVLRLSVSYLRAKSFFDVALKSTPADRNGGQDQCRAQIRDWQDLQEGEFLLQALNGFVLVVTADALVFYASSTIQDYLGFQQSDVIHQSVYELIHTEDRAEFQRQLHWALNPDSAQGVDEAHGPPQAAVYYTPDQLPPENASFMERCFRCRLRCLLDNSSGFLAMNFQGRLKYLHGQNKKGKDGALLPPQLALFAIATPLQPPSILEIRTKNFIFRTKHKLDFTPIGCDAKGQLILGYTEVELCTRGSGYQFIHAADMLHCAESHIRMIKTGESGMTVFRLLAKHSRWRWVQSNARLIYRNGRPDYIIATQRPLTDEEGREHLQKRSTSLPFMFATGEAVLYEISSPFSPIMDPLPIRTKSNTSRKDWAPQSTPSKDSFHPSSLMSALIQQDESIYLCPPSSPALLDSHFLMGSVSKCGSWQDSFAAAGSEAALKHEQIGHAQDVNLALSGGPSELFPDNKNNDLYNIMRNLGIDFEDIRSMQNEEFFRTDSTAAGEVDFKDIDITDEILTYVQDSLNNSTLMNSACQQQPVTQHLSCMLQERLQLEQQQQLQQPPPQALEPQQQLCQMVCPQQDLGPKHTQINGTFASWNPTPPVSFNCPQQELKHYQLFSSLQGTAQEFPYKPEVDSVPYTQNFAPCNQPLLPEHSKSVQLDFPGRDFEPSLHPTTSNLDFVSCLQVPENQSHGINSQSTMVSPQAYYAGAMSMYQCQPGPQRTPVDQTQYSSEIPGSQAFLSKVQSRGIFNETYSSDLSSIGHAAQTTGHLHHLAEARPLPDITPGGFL
Procedure, shortened: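 Murine Hepa1-6 (or other murine/human lines) treated with agonist for 6, 16 or 24 h, then lysed and incubated with luminogenic CYP1A1 substrate (e.g. Luciferin-CEE). Luminescence normalised between no-ligand minimum and reference AHR ligand maximum; EC50 is concentration giving half-maximal activation.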

Row | Compound | EC50 (AHR [1]) | EC50 (AHR [2])
1 | Nc1cccc(-c2csc(Nc3cccc(C(F)(F)F)c3)n2)c1 [I-10] | < 10 nM | 100 to 1000 nM
2 | FC(F)(F)c1cccc(Nc2nc(-c3cccc(Cl)c3)cs2)c1 [Compound P-2] | < 10 nM | 100 to 1000 nM

From US12030876B2, “Aryl hydrocarbon receptor (AHR) agonists and uses thereof” (Ikena Oncology, Inc., priority 2019, dated 2024)
